The results in this text go back to patent US20260209301A1, “Galanin-2 Receptor Agonists” (LIFEARC, priority 2022, published 2026).

For data set [1], the system named is mouse CCI model of neuropathic pain. Format: in vivo. Conditions: for minimal effective dose (at 4 hrs): von Frey, 4 hrs post-dose. The source says: The Chronic Constriction Injury (CCI) model of neuropathic pain involves unilateral loose ligation of four ligatures around the left sciatic nerve at mid-thigh level spaced 1 mm apart (Chaplan S R, et al J Neurosci Methods. 1994 July; 53(1):55-63). This procedure results in the development of hyperalgesia, allodynia and spontaneous pain (ectopic discharges) which can be measured using mechanical and thermal behavioural assessments. […] The mouse CCI model of neuropathic pain differs from that of the rat by virtue of 3 ligatures around the sciatic nerve instead of 4.
Static mechanical tactile allodynia: Static mechanical (tactile) allodynia was assessed by measurement of withdrawal threshold using calibrated (force; g) von-Frey monofilaments (Touch-Test Sensory Evaluator; Scientific Marketing Associates) applied to the plantar surface of the hindpaw. The animals were placed in individual Perspex boxes on a raised metal mesh for 30-40 min before the test. A series of graduated von Frey hairs (0.07, 0.16, 0.4, 0.6 and 1 g) was applied in sequence with a protocol of 1 sec on 1 sec off repeated 10 times. Each hair was applied perpendicularly to the centre of the ventral surface of the paw until it bent slightly. The force applied to the hind-paw of the animal to induce 5 responses out of 10 trials was recorded as paw withdrawal threshold (PWT).
Baseline PWT was assessed on three consecutive days (Day-2, Day-1 and Day 0) and the mean of the last two readings used as the baseline withdrawal threshold.
On Day 1, neuropathic pain was induced via ligation of the sciatic nerve using three loose ligatures of prolene sutures (Chronic Constriction Injury). Under Isoflurane anaesthesia mixed with oxygen (3:1, 1 L/min) the left hind leg was shaved mid-thigh level and an incision made through the skin using a scalpel. The biceps femoris muscle layer was dissected by making an initial incision using a pair of sharp scissors, which was then widened using a pair of blunt scissors. The common sciatic nerve was exposed using a pair of forceps and 3 loose ligatures of prolene (7-0, Ethicon) were tied around the sciatic nerve with 1 mm spacing between each. The nerve was then returned below the muscle layer and the wound closed using absorbable sutures (Vicryl).
Von Frey assessment of mechanical allodynia was taken on days 19 and 22. Animals were then ranked and randomised (based on a Latin square design) to treatment groups according to the percentage change (compared to pre-surgery baseline) of the mean mechanical withdrawal threshold observed on days 19 and 22. Only those animals showing a PWT percentage change of >60% from pre-surgery baseline were included in the study.
Dosing took place on day 23 with either vehicle, test compound (i.p.) or Pregabalin (15 mg/kg p.o.) at 10 ml/kg. Allodynia was then assessed at intervals thereafter e.g. 2, 4 and 24 hours post dose. von Frey measurement continued until activity disappeared up to day 27.
For studies involving a repeat administration, dosing took place on day 23 with either vehicle, test compound (i.p.) or Pregabalin (15 mg/kg p.o.) at 10 mL/kg. Allodynia was then assessed at intervals thereafter e.g. 4, 24 and 48 hours post dose. Animals were re-dosed at 68, 116, 164, 212, 260, 308 hours, with von Frey measurements conducted 4 hrs after each administration. Allodynia was therefore measured at 72, 120, 168, 216, 264, and 312 hours post initial dose, equating to repeat dosing 2, 3, 4, 5, 6 and 7 times, respectively
Evaluation of study & Statistical analysis: vF withdrawal threshold (g) was assessed by a series of graduated von Frey hairs (0.07, 0.16, 0.4, 0.6 and 1 g) applied in sequence to the ipsilateral hindpaw with a protocol of 1 sec on 1 sec off repeated 10 times. Each hair was applied perpendicularly to the centre of the ventral surface of the paw until it bent slightly. […]

A further data set has as its target T1, GALR2 (Homo sapiens, UniProt O43603).
T1 sequence (O43603 1-387): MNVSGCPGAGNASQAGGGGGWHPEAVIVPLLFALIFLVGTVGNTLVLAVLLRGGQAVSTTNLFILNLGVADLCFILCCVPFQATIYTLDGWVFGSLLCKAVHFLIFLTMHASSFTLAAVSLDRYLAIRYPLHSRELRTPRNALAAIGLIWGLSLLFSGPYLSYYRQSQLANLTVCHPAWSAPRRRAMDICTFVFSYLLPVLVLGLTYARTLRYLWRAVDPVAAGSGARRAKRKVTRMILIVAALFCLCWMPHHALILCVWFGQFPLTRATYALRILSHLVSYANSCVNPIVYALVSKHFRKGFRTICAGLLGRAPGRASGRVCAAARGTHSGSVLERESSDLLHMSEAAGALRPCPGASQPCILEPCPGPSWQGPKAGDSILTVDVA
Briefly: Radioligand binding, [125I]galanin displacement on CHO GalR2 membranes. Also on record: expressed in transfected cells; host or cells: CHO (Flp-In, pcDNA5/FRT). To be noted: recombinant GalR2 membranes, FIG. 3. The procedure:
Cell membrane homogenates (4 μg protein—from CHO cells expressing the GalR2 receptor) were incubated for 120 minutes at 22° C. with 0.05 nM [^125I] galanin in the absence or presence of test compound in a buffer containing 25 mM Tris-HCl (pH 7.4, 10 mM MgCl2 and 0.5% BSA. Non-specific binding was determined in the presence of 1 μM porcine galanin. Following incubation, samples were filtered rapidly under vacuum through glass fiber filters (GF/B, Packard) pre-soaked with 0.3% PEI and rinsed several times with ice cold 50 mM Tris-HCl using a 96 sample cell harvester (Unifilter, Packard). The filters are dried then counted for radioactivity in a scintillation counter (Topcount, Packard) using a scintillation cocktail (Microscint 0), Packard). The results are expressed as a percent inhibition of the control radioligand specific binding. The standard reference compound is porcine galanin which is tested in each experiment at several concentrations to obtain a competition curve from which its IC50 is generated.
Briefly, cell overexpressing recombinant GalR2 were used to for crude membrane preparations. Competition style binding assays were then used to monitor displacement of [125I]-Galanin using a range of concentrations of Gal-FC fusion. After a period of incubation data were expressed relative the maximum specific Galanin bound.

Read-outs that look alike come from different tables or passages of the source.

As to “Gal2-13FC: galanin 2-13, AEAAAKEAAAKA linker, human IgG1 FC; SEQ ID NO: 7”, the “effect on withdrawal threshold, low dose” value in data set [1] (0.03 mg/kg i.p., 4 hours) is “effective”; in data set [1] (0.1 mg/kg, 24 hours), “statistically significant”. Besides, the “effect-desensitisation on repeat administration” value in data set [1] (0.3 and 1 mg/kg i.p., re-dosed days 3-13) is “no loss of effect”. In addition, in data set [1] (mouse CCI), the “minimal effective dose (at 4 hrs)” value was 0.03 mg/kg i.p. Also, the “duration of statistically significant reversal of mechanical hyperalgesia” value in data set [1] (mouse CCI, highest and lowest doses tested) is given as “up to 96 hrs post-dose”. For the same substance, the “Minimum Effective Dose [MED]” value in data set [1] (mouse CCI, multiple studies taken collectively) was at most 0.03 mg/kg i.p. Further, the “sustained reversal on repeat dosing, duration” value in data set [1] (mouse CCI, repeat dosing) was at least 13 days. In data set [1] (mouse CCI, study with 1, 3, 10 and 30 mg/kg i.p.), this substance gave a minimal effective dose of at most 1 mg/kg i.p. In data set [1] (mouse, in vivo), the “sedation (observational during testing)” value was “not associated with overt sedation”.

Regarding “Gal2-30FC: galanin 2-30, AEAAAKEAAAKA linker, human IgG1 FC; SEQ ID NO: 28”, in the data set with GALR2, the “pIC50, displacement of [125I]-Galanin binding” value came out at 7.55. Moreover, the “reversal of CCI-induced mechanical hyperalgesia” value in data set [1] (3, 10 and 30 mg/kg i.p., 2 and 4 hrs) was “efficacious and reversed CCI-induced mechanical hyperalgesia”. In addition, the “effect on CCI-induced mechanical hyperalgesia at 24 hrs” value in data set [1] (24 hrs, any of the doses tested (1-30 mg/kg i.p.)) is “not at 24 hrs”. In data set [1] (mouse CCI), the “minimal effective dose (at 4 hrs)” value is 3 mg/kg i.p.
